Values joined by “and” are separate entries in the source; they are usually repeats but may differ in a detail not shown here. Identical values can stand only once. Inconclusive results and toxic doses are left out. Cut-off read from the data, not from the text of the source: active = T/C of 150% or more; inactive = T/C below 125%.
System: L1210 leukemia ip in BDF1 mice, survival T/C
Experiment: NCI In Vivo Anticancer Drug Screen. Data for tumor model L1210 Leukemia (intraperitoneal) in B6D2F1 (BDF1) mice
Conditions: endpoint: mean survival time, higher = longer survival
Summary of the method: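 Survival endpoint. Drug-treated group vs vehicle group, expressed as T divided by C. Tumor passaged by transplantation.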

[1] = dose: 100.0 mg/kg/injection, schedule: Q04DX002 (ip), vehicle: saline with Tween-80
[2] = dose: 100.0 mg/kg/injection, schedule: Q04DX002 (ip), vehicle: saline
[3] = dose: 200.0 mg/kg/injection, schedule: Q04DX002 (ip), vehicle: saline
[4] = dose: 400.0 mg/kg/injection, schedule: Q04DX002 (ip), vehicle: saline with Tween-80
[5] = dose: 100.0 mg/kg/injection, schedule: Q01DX001 (ip), vehicle: saline
[6] = dose: 100.0 mg/kg/injection, schedule: Q04DX003 (ip), vehicle: Klucel (hydroxypropylcellulose) (HPC)
[7] = dose: 200.0 mg/kg/injection, schedule: Q04DX003 (ip), vehicle: Klucel (hydroxypropylcellulose) (HPC)
[8] = dose: 400.0 mg/kg/injection, schedule: Q04DX003 (ip), vehicle: Klucel (hydroxypropylcellulose) (HPC)
[9] = dose: 100.0 mg/kg/injection, schedule: Q01DX009 (ip), vehicle: Klucel (hydroxypropylcellulose) (HPC)
[10] = dose: 200.0 mg/kg/injection, schedule: Q01DX009 (ip), vehicle: Klucel (hydroxypropylcellulose) (HPC)
[11] = dose: 200.0 mg/kg/injection, schedule: Q01DX001 (ip), vehicle: saline
[12] = dose: 400.0 mg/kg/injection, schedule: Q01DX001 (ip), vehicle: saline
[13] = dose: 100.0 mg/kg/injection, schedule: Q01DX001 (ip), vehicle: Klucel (hydroxypropylcellulose) (HPC)
[14] = dose: 200.0 mg/kg/injection, schedule: Q01DX001 (ip), vehicle: Klucel (hydroxypropylcellulose) (HPC)
[15] = dose: 400.0 mg/kg/injection, schedule: Q01DX001 (ip), vehicle: Klucel (hydroxypropylcellulose) (HPC)
[16] = dose: 100.0 mg/kg/injection, schedule: Q01DX009 (ip), vehicle: saline
[17] = dose: 100.0 mg/kg/injection, schedule: Q04DX003 (ip), vehicle: saline
[18] = dose: 200.0 mg/kg/injection, schedule: Q01DX009 (ip), vehicle: saline
[19] = dose: 200.0 mg/kg/injection, schedule: Q04DX003 (ip), vehicle: saline
[20] = dose: 400.0 mg/kg/injection, schedule: Q01DX009 (ip), vehicle: saline
[21] = dose: 400.0 mg/kg/injection, schedule: Q04DX003 (ip), vehicle: saline

Measured: T/C

O=C(CCCCC(=O)NO)NO
inactive: [1] 110 % of control | [2] 103 % of control | dose: 200.0 mg/kg/injection, schedule: Q04DX002 (ip), vehicle: saline with Tween-80 110 % of control | [3] 90 % of control | [4] 107 % of control | dose: 400.0 mg/kg/injection, schedule: Q04DX002 (ip), vehicle: saline 107 % of control

Fc1ccc(N2CCNCC2)cc1
inactive: dose: 12.5 mg/kg/injection, schedule: Q01DX009 (ip), vehicle: saline with Tween-80 104 % of control | dose: 25.0 mg/kg/injection, schedule: Q01DX009 (ip), vehicle: saline with Tween-80 104 % of control | dose: 50.0 mg/kg/injection, schedule: Q01DX009 (ip), vehicle: saline with Tween-80 107 % of control

CC(C)=CC1C(C(=O)OC2CCN(C)CC2)C1(C)C (stereo unspecified)
inactive: dose: 25.0 mg/kg/injection, schedule: Q01DX001 (ip), vehicle: saline 98 % of control | dose: 50.0 mg/kg/injection, schedule: Q01DX001 (ip), vehicle: saline 98 % of control | [5] 101 % of control and 107 % of control

Cc1c(CCO)sc[n+]1Cc1ccccc1
inactive: [2] 93 % of control | [3] 100 % of control

NS(=O)(=O)c1ccc(NC(=O)Nc2cc([N+](=O)[O-])ccc2F)cc1
inactive: [6] 98 % of control | [7] 95 % of control | [8] 87 % of control

c1ccc(CN2CCCCC2)nc1
inactive: dose: 10.0 mg/kg/injection, schedule: Q01DX009 (ip), vehicle: Klucel (hydroxypropylcellulose) (HPC) 103 % of control | dose: 10.0 mg/kg/injection, schedule: Q04DX003 (ip), vehicle: Klucel (hydroxypropylcellulose) (HPC) 92 % of control | dose: 20.0 mg/kg/injection, schedule: Q01DX009 (ip), vehicle: Klucel (hydroxypropylcellulose) (HPC) 91 % of control | dose: 20.0 mg/kg/injection, schedule: Q04DX003 (ip), vehicle: Klucel (hydroxypropylcellulose) (HPC) 97 % of control | dose: 40.0 mg/kg/injection, schedule: Q04DX003 (ip), vehicle: Klucel (hydroxypropylcellulose) (HPC) 97 % of control

CCCC(C)OP(=O)(OC(C)CC)OC(C)CC (stereo unspecified)
inactive: [9] 97 % of control | [10] 97 % of control

CNS(=O)(=O)c1ccccc1C(=O)c1ccccc1
inactive: [5] 100 % of control | [11] 97 % of control | [12] 103 % of control

O=C(Cc1ccc(CC(=O)NO)cc1)NO
inactive: dose: 75.0 mg/kg/injection, schedule: Q01DX001 (ip), vehicle: saline 100 % of control | dose: 150.0 mg/kg/injection, schedule: Q01DX001 (ip), vehicle: saline 96 % of control

CSCCC(C#N)(CCN(C)C)c1ccccc1 (stereo unspecified)
inactive: dose: 25.0 mg/kg/injection, schedule: Q01DX009 (ip), vehicle: other 102 % of control | dose: 50.0 mg/kg/injection, schedule: Q01DX009 (ip), vehicle: other 98 % of control | dose: 100.0 mg/kg/injection, schedule: Q01DX009 (ip), vehicle: other 91 % of control | dose: 100.0 mg/kg/injection, schedule: Q01DX009 (ip), vehicle: saline with Tween-80 97 % of control | [6] 96 % of control | [7] 98 % of control

CCCCN/C(C)=C/C(=O)/C=C(\C)NCCCC
inactive: [9] 94 % of control | [6] 117 % of control | [10] 110 % of control | [7] 96 % of control | dose: 400.0 mg/kg/injection, schedule: Q01DX009 (ip), vehicle: Klucel (hydroxypropylcellulose) (HPC) 95 % of control | [8] 100 % of control

C/C(=N/NC(N)=S)c1ccc(F)cc1
inactive: dose: 9.38 mg/kg/injection, schedule: Q01DX009 (ip), vehicle: Klucel (hydroxypropylcellulose) (HPC) 95 % of control | dose: 18.75 mg/kg/injection, schedule: Q01DX009 (ip), vehicle: Klucel (hydroxypropylcellulose) (HPC) 92 % of control

N#CCCN(CCCN1CCOCC1)C(=S)Nc1cccc(C(F)(F)F)c1
inactive: [1] 92 % of control | [4] 100 % of control

Nc1ncnc2c1nc1n2C2OC(CO)C(O)C2O1 (stereo unspecified)
inactive: [5] 111 % of control | [11] 109 % of control | [12] 111 % of control

C=CCc1ccc2c(C)cc[n+](C)c2c1O
inactive: [5] 91 % of control | [11] 93 % of control

CC(C)NC(C)C
inactive: [13] 104 % of control | [14] 101 % of control | [15] 107 % of control

CCCCB1OCCCO1
inactive: [13] 98 % of control | [14] 88 % of control | [15] 92 % of control

COC(=O)C(C)CN1CC(C)OC(C)C1 (stereo unspecified)
inactive: [16] 95 % of control | [17] 102 % of control | [18] 97 % of control | [19] 98 % of control | [20] 95 % of control | [21] 104 % of control

Cc1c2ccnc(-c3ccccc3)c2cc2c1[nH]c1ccccc12
inactive: dose: 31.3 mg/kg/injection, schedule: Q01DX Z (ip), vehicle: other 98 % of control | dose: 62.5 mg/kg/injection, schedule: Q01DX Z (ip), vehicle: other 101 % of control | dose: 100.0 mg/kg/injection, schedule: Q01DX001 (ip), vehicle: carboxymethylcellulose (CMC) 108 % of control | dose: 125.0 mg/kg/injection, schedule: Q01DX015 (oral), vehicle: carboxymethylcellulose (CMC) 102 % of control | dose: 125.0 mg/kg/injection, schedule: Q01DX Z (ip), vehicle: other 101 % of control | dose: 200.0 mg/kg/injection, schedule: Q01DX001 (ip), vehicle: carboxymethylcellulose (CMC) 103 % of control | dose: 250.0 mg/kg/injection, schedule: Q01DX015 (oral), vehicle: carboxymethylcellulose (CMC) 93 % of control | dose: 250.0 mg/kg/injection, schedule: Q01DX Z (ip), vehicle: other 91 % of control | dose: 400.0 mg/kg/injection, schedule: Q01DX001 (ip), vehicle: carboxymethylcellulose (CMC) 97 % of control | dose: 500.0 mg/kg/injection, schedule: Q01DX015 (oral), vehicle: carboxymethylcellulose (CMC) 93 % of control

FC(F)(F)C(F)(F)C1=NS1(F)C(F)(C(F)(F)F)C(F)(F)F (stereo unspecified)
inactive: dose: 100.0 mg/kg/injection, schedule: Q01DX001 (ip), vehicle: acetone 100 % of control | dose: 200.0 mg/kg/injection, schedule: Q01DX001 (ip), vehicle: acetone 97 % of control | dose: 400.0 mg/kg/injection, schedule: Q01DX001 (ip), vehicle: acetone 97 % of control

COc1cc(C=NC(CO)C(=O)O)ccc1O.COc1cc(C=NC(CO)C(=O)O)ccc1O.[Fe] (stereo unspecified)
inactive: [16] 92 % of control | [17] 88 % of control | [18] 92 % of control | [19] 95 % of control | [20] 95 % of control | [21] 93 % of control

CCSC(C(O)C(O)C(O)CO)n1ccc(N)nc1=O (stereo unspecified)
inactive: dose: 100.0 mg/kg/injection, schedule: Q01DX005 (ip), vehicle: saline 101 % of control and 104 % of control | [16] 106 % of control and 109 % of control | dose: 200.0 mg/kg/injection, schedule: Q01DX005 (ip), vehicle: saline 95 % of control and 98 % of control and 101 % of control | [18] 106 % of control and 98 % of control | [20] 112 % of control and 102 % of control

From PubChem BioAssay AID248 (DTP/NCI, 2004)
